Like-named read-outs stand apart in the source and are kept apart here.

The target of data set [1] is T1, human full length active PARP3 (Homo sapiens, UniProt Q9Y6F1).
T1 construct: human full length active PARP1 (CS207770, Merck), PARP2 (ab198766, Abeam) and PARP3 (ab79638, Abeam) proteins; purchased Abcam ab79638
T1 sequence (Q9Y6F1 1-533): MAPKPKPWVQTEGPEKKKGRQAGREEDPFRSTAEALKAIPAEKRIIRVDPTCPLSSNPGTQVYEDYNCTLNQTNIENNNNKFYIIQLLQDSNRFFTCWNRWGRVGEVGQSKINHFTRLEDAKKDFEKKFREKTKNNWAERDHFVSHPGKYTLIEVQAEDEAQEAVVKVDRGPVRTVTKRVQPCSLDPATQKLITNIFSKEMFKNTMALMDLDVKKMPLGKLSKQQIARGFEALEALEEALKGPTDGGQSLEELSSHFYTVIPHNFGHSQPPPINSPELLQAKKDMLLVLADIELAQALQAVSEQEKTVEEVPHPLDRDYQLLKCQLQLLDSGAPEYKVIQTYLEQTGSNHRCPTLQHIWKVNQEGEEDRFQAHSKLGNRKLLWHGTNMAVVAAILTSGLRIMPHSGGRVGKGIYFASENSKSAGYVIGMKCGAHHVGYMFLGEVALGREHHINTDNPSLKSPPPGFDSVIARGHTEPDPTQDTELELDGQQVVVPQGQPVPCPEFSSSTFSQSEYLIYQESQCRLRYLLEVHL
In words: PARP inhibitor assay, fluorescence-based, PARP3. The format is biochemical. Conditions: for IC50: inhibition of total PARP3 activity (controls 1 and 2), 400 μM β-NAD. The source says:
(§1) The PARP inhibitor assay is a direct fluorescence-based concentration measurement of reaction product formation. The assay reagents are sold as a commercial kit (see http://www.merckmillipore.com/GB/en/product/PARP1-Enzyme-Activity-Assay,MM_NF-17-10149). To measure PARP inhibition, the NAD+ substrate concentration should be set at Km (the Michaelis constant) to enable identifications of all types of inhibitors (competitive, uncompetitive and non-competitive (allosteric) (the latter represents a mode of action of Zn-finger inhibitors)), direct calculation of inhibitor potency (Ki) and in vivo modelling. (See in and literature sited therein: Michael G. Acker, Douglas S. Auld. Considerations for the design and reporting of enzyme assays in high-throughput screening applications. Perspectives in Science (2014) 1, 56-73).
(§2) PARP activity and inhibition was measured for human full length active PARP1 (CS207770, Merck), PARP2 (ab198766, Abeam) and PARP3 (ab79638, Abeam) proteins. Inhibitor compounds (Sodium Aurothiomalate and Aurothioglucose, Sigma-Aldrich and Auranofin, Bio-Techne) at different concentrations (1, 10 and 100 nM, 1, 10 and 100 μM final) were added to the reaction buffer, concocted as a 1:1 mixture of Merck kit buffer with 50 mM Tris-HCl, 100 mM NaCl, 5 mM MgCl2, 0.05% Tween-20, pH 8.0, Sigma), and incubated with PARP1 (2.5 ng/μL final), PARP2 (2.2 ng/μL final) or PARP3 (55 ng/μL final) at room temperature for 30 min.
(§3) Further, activated DNA (2 ng/μL final), […] (60 and 400 μM final for PARP1/2 and PARP3, respectively) and Nicotinamidase (200 ng/μL final) were added and incubated at 37° C. for 45 min. Total reaction volume was 25 μL.
(§4) Controls were executed as follows: • 1. Control of 0% inhibition contained reaction sample without inhibitor; • 2. Control of 100% inhibition of PARP1/2/3 activity contained reaction sample without β-NAD; and • 3. Control of 100% inhibition of DNA-dependent activity contained reaction sample without DNA.
(§5) After the plates were cooled down to room temperature, 25 μL of Merck proprietary reagent was added to the reaction mixture and incubated at mild shaking for 45 min. Fluorescence measurement was carried out at excitation wavelength of 410 nm and emission of 460 nm in Fluostar Omega microplate reader (BMG Labtech).
(§6) Total PARP1/2/3 activity was calculated as a difference between control (1) and control (2). DNA-independent activity was calculated as a difference between control (1) and control (3). DNA-dependent activity was calculated as the difference between the total PARP1/2/3 activity and DNA-independent activity. […] However, potentially up to 30% of PARP1 activity can be DNA-independent.
Inhibitory values were converted into percentages according to controls. […]

Data set [2] has as its target T2, human full length active PARP1 (Homo sapiens, UniProt P09874).
T2 construct: human full length active PARP1 (CS207770, Merck); purchased Merck CS207770
In words: PARP inhibitor assay, fluorescence-based (PARP1 Enzyme Activity Assay kit), PARP1. The data set is classed as biochemical.
Text: as §1, §2, §3, §4, §5, §6
(§7) Inhibitory values were converted into percentages according to controls. Controls (1) and (3) were used in the case of PARP1, because only inhibition of DNA-dependent activity was observed, and the results are shown in FIG. 2. Controls (1) and (2) were used in the case of PARP2/3, because inhibition of total PARP2/3 activity (both DNA-dependent and DNA-independent reactions) was observed. FIGS. 3 and 4 show the percentage inhibition of PARP1 and PARP2 for different concentrations of aurothiomalate and aurothioglucose, respectively.

In data set [3] the target is T3, human full length active PARP2 (Homo sapiens, UniProt Q9UGN5).
T3 construct: human full length active PARP1 (CS207770, Merck), PARP2 (ab198766, Abeam); purchased Abcam ab198766
T3 sequence (Q9UGN5 whole entry): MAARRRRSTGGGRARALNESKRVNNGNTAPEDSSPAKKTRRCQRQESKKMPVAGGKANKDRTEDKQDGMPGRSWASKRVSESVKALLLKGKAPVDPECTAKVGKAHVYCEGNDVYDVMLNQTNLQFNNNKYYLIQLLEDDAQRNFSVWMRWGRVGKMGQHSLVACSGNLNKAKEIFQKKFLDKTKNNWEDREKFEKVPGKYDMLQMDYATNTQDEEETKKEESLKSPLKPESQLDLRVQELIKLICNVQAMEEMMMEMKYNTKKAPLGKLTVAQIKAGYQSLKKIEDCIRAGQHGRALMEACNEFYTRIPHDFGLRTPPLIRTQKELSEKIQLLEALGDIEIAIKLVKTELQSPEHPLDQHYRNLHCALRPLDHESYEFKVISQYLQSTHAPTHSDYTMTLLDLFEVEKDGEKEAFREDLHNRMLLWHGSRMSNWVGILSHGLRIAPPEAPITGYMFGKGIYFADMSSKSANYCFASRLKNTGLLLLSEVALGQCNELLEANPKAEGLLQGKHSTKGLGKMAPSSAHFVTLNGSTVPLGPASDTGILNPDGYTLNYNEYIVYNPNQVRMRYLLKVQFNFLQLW
In words: PARP inhibitor assay, fluorescence-based, PARP2. The data set is classed as biochemical.
Text: as §1, §2, §3, §4, §5, §6, §7

In data set [4] the test system is rats fed a high adenine/low protein diet (chronic kidney disease). In words: Bone density in rat model on high adenine/low protein diet (CKD), SEM/TEM of long limb bone cross sections. The format is in vivo. The conditions noted are these: 50 mg/kg/day for 6 weeks; cortical area of long limb bone cross section; vs control and untreated CKD-diet rats; FIG. 8b. As for the experimental part: The effects of minocycline on bone calcification processes were evaluated in an in vivo rat model. The rats were fed a high adenine/low protein diet in order to develop chronic kidney disease (CKD) and associated hyperphosphatemia and medial vascular calcification. It is also expected to cause increased rates of bone turnover, allowing the inventors to examine whether inhibition of PARP2 enzymatic activity during bone remodelling affected mineralization. 14 of the rats on the high adenine/low protein diet were treated with 50 mg/kg/day of minocycline for 6 weeks. At the end of the study period cross sections of the long limb bone were analysed using scanning electron microscopy (SEM) and transmission electron microscopy (TEM), see FIG. 7, and the area fraction of solid bone in the cortical area of the bone cross section was quantified from these images, see FIG. 8. Statistical significance was determined by Mann-Whitney test.

Where [5] appears, read: inhibition of DNA-dependent activity (controls 1 and 3), 60 μM β-NAD, activated DNA, read-out: IC50 PARP1.
Where [6] appears, read: inhibition of total PARP2 activity (controls 1 and 2), 60 μM β-NAD, read-out: IC50 PARP2.

T2 sequence (P09874 whole entry): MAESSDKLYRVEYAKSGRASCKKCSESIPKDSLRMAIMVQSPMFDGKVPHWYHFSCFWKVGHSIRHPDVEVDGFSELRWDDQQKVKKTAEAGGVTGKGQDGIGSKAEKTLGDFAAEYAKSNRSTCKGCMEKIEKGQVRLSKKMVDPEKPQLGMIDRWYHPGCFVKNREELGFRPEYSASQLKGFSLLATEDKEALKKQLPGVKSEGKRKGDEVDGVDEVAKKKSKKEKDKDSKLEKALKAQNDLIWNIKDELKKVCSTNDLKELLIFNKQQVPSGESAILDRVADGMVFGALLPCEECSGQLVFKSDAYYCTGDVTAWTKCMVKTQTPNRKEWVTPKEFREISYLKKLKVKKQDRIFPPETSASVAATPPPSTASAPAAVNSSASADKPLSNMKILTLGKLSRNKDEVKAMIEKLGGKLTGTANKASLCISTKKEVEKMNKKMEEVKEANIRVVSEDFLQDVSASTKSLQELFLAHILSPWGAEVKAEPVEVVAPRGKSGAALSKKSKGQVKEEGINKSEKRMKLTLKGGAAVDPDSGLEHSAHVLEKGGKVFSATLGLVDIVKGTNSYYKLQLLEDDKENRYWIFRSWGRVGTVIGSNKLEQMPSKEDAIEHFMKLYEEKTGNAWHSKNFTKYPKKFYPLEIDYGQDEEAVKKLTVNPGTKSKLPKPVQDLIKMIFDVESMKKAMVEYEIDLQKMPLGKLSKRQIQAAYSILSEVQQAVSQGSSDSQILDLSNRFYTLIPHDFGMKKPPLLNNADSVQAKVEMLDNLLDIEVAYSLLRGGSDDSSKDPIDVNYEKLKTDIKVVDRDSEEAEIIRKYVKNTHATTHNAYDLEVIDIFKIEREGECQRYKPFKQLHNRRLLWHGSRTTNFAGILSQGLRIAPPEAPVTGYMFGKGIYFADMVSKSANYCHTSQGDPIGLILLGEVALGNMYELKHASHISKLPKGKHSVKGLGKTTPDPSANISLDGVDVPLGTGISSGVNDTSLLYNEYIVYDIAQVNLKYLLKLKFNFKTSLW

In the case of Sodium Aurothiomalate, the “PARP3 inhibition (in words)” value in data set [1] is recorded as “not inhibited”. In addition, the half-maximal inhibitory concentration (IC50) (as a rule, the midpoint of a concentration-inhibition curve) in data set [1] is 1160 ± 93 nM; in data set [2] (setting [5]) it was 48 ± 7 nM; in data set [3] (setting [6]) it was 1190 ± 190 nM. The “DNA-independent PARP1 activity in the presence of the compound” value in data set [2] was “maintained”. Besides, in data set [3], the “PARP2 inhibition (in words)” value is recorded as “not inhibited”.
Consider `OC[C@H]1OC([S][Au])[C@H](O)[C@@H](O)[C@@H]1O` (some centres unmarked) [Aurothioglucose], for which, in data set [1], the “PARP3 inhibition (in words)” value is listed as “not inhibited”. The values for the IC50 in data set [1], in data set [2] and in data set [3] (setting [6]) were 1140 ± 20 nM, 120 ± 7 nM and 4450 ± 623 nM, respectively. In data set [2], the “DNA-independent PARP1 activity in the presence of the compound” value is “maintained”. In data set [3], the “PARP2 inhibition (in words)” value is given as “not inhibited”.
Regarding `CC(=O)OC[C@H]1O[C@@H]([S-])[C@H](OC(C)=O)[C@@H](OC(C)=O)[C@@H]1OC(C)=O.CCP(CC)CC.[Au+]` [Auranofin], in data set [2] (FIG. 2 and Table 1), the “PARP1 inhibition (in words)” value was “only inhibits PARP1 and PARP2 at very high concentrations”. Moreover, the figures for the half-inhibitory concentration (IC50) in data set [2] (setting [5]) and in data set [3] (setting [6]) were 1400 ± 98 nM and 1160 ± 81 nM, respectively. In data set [3], the “PARP2 inhibition (in words)” value was “only inhibits PARP1 and PARP2 at very high concentrations”.
On to `CN(C)c1ccc(O)c2c1C[C@H]1C[C@H]3[C@H](N(C)C)C(O)=C(C(N)=O)C(=O)[C@@]3(O)C(O)=C1C2=O` [minocycline], for which the “reduction in the area fraction of solid bone” value in data set [4] came out at 25%. The 50% inhibitory concentration (IC50) in data set [2] (assay of Example 1, FIG. 6, read-out: IC50 PARP1) is 204000 nM; in data set [3] it was 2800 nM. Further, the “PARP2 vs PARP1 selectivity factor” value in data set [3] (ratio of PARP1 and PARP2 IC50) is on record as “greater than 70 ×”.

The values above are taken from US20210052632A1, “SELECTIVE PARP1 INHIBITORS TO TREAT CANCER” (Cambridge Enterprise Limited, priority 2018, published 2021).
